Experimental data from patent US20160022718A1, “METHODS OF LOWERING BLOOD PRESSURE” (LEXICON PHARMACEUTICALS, INC., priority 2010, published 2016).

System: patients with type 2 diabetes mellitus
Assay: randomized, double-blind, placebo controlled Phase 2a clinical trial, 28 days once daily oral dosing
Assay type: in vivo, human
Conditions: for Change in Weight, change from baseline / Seated Diastolic BP, change from baseline / Seated Systolic BP, change from baseline / Serum Triglyceride, change from baseline: four-week treatment; for Change in Weight, change from baseline: placebo −2.2; for Seated Diastolic BP, change from baseline: placebo −2.9; for Seated Systolic BP, change from baseline: placebo −4.3; for Serum Triglyceride, change from baseline: placebo −20.2; for reduction of average percent HbA1c after four weeks of dosing: placebo 0.49; for reduction in fasting plasma glucose level at week four: placebo 15.1 mg/dl
Method: Certain aspects of this invention may be understood with reference to the figures, which provide results obtained from a randomized, double-blind, placebo controlled Phase 2a clinical trial, wherein 150 mg and 300 mg doses of a compound of the invention were orally administered once daily to patients with type 2 diabetes mellitus.
This invention is based, in part, on findings—provided herein—obtained from a randomized, double-blind, placebo controlled Phase 2a clinical trial, wherein 150 mg/day and 300 mg/day doses of a dual SGLT1/2 inhibitor were administered to patients with type 2 diabetes mellitus. The dual SGLT1/2 inhibitor was (2S,3R,4R,5S,6R)-2-(4-chloro-3-(4-ethoxybenzyl)phenyl)-6-(methylthio)tetrahydro-2H-pyran-3,4,5-triol, which has the structure:
Patients (n=36) with type 2 diabetes mellitus received one of two oral doses of (2S,3R,4R,5S,6R)-2-(4-chloro-3-(4-ethoxybenzyl)phenyl)-6-(methylthio)tetrahydro-2H-pyran-3,4,5-triol, given as 150 mg or 300 mg once daily, or matching placebo, for 28 days.
In this study, patients on metformin were taken off of the drug 16 days prior to day 0, the day dosing first began.

[1] = both treatment groups (150 mg/day and 300 mg/day)

CCOc1ccc(Cc2cc([C@@H]3O[C@H](SC)[C@@H](O)[C@H](O)[C@H]3O)ccc2Cl)cc1 [(2S,3R,4R,5S,6R)-2-(4-chloro-3-(4-ethoxybenzyl)phenyl)-6-(methylthio)tetrahydro-2H-pyran-3,4,5-triol]
Change in Weight, change from baseline (150 mg (n = 12)): −3.4% | Seated Diastolic BP, change from baseline (150 mg (n = 12)): −5.8 mmHg | Seated Systolic BP, change from baseline (150 mg (n = 12)): −10.3 mmHg | Serum Triglyceride, change from baseline (150 mg (n = 12)): -66.6 mg/dL | reduction of average percent HbA1c after four weeks of dosing (150 mg dose group, p=0.036, baseline 8.22%): 1.15% | reduction in fasting plasma glucose level at week four (150 mg dose group): 53.4 mg/dL | dose-limiting toxicities (150 mg or 300 mg once daily, 28 days): no evidence of dose-limiting toxicities was observed | adverse events (150 mg or 300 mg once daily, 28 days, evenly distributed across all dose groups, including placebo): generally mild | insulin sensitivity, homeostatic model assessment (HOMA) (FIG. 4) (150 mg/day and 300 mg/day groups vs placebo, day 27): improved insulin sensitivity | mean plasma glucose AUC (FIG. 3) (150 mg/day and 300 mg/day groups, after one day of treatment): statistically significant decreases | Change in Weight, change from baseline (300 mg (n = 12)): −3.7% | Seated Diastolic BP, change from baseline (300 mg (n = 12)): −5.3 mmHg | Seated Systolic BP, change from baseline (300 mg (n = 12)): −13.1 mmHg | Serum Triglyceride, change from baseline (300 mg (n = 12)): -62.8 mg/dL | reduction of average percent HbA1c after four weeks of dosing (300 mg dose group, p=0.017, baseline 8.50%): 1.25% | percentage of patients achieving fasting plasma glucose levels of <105 mg/dl at week four (300 mg dose group, p=0.037 vs placebo): 42% | reduction in fasting plasma glucose level at week four (300 mg dose group): 65.9 mg/dL | share of patients with HbA1c levels reduced to less than or equal to 7% (both dose groups (150 mg and 300 mg), four weeks): half | glucosuria over the 28-day dosing period compared to placebo (both dose levels (150 mg and 300 mg once daily, oral), preliminary data): significant and sustained glucosuria | glucose tolerance vs placebo group (FIG. 2) [1]: greater glucose tolerance | mean arterial pressure, day 28 compared to baseline (FIG. 10) [1]: decreased | post-prandial glucose levels compared to placebo (FIG. 5) [1]: rapid, statistically significant decrease
